Source: PMC7461115, “Contribution of KCNQ and TREK Channels to the Resting Membrane Potential in Sympathetic Neurons at Physiological Temperature” (International Journal of Molecular Sciences, 2020)

Tests used:
[1] = target: T1, TREK-2 (expressed in HEK293) (Mus musculus, UniProt Q8BUW1); test: patch clamp of transfected HEK293 cells, inhibition of riluzole-evoked current
T1 construct: gene Kcnk10
T1 sequence (Q8BUW1 1-535): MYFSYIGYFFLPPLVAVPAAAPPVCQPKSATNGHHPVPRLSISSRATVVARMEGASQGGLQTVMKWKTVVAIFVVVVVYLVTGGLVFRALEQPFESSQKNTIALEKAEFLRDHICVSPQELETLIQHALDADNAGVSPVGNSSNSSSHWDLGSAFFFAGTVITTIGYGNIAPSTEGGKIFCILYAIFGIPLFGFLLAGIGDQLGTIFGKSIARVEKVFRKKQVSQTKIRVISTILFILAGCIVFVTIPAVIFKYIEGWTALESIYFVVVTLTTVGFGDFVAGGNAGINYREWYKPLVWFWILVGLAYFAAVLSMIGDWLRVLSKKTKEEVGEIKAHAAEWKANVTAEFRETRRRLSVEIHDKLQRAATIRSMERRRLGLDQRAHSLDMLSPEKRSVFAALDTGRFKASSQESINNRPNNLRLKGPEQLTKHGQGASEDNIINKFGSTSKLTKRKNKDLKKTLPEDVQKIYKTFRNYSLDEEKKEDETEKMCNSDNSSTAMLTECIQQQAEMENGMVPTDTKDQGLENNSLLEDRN

[2] = target: T2, TREK-2 (native riluzole-activated current IRIL in mouse SCG neurons) (Mus musculus, UniProt Q8BUW1); test: perforated-patch whole-cell voltage clamp, inhibition of riluzole-activated current; assay type: cell-based; conditions: riluzole 300 µM activator, TEA 15 mM, TTX 0.5 µM, CsCl 1 mM, -30 mV, room temperature, Hill coefficient 0.78
T2 construct: gene Kcnk10; TREK-1 and TRAAK are also expressed at lower level

SMILES	inhibition at 1 µM ([1]; HEK293, read-out: % inhibition at 1 μM)	IC50 [2]	inhibition at 0.3 µM ([1]; HEK293, read-out: % inhibition at 300 nM)
O=C1c2ccccc2C(Cc2ccncc2)(Cc2ccncc2)c2ccccc21 [XE991]	73.8 ± 1.93%	–	–
O=C1N(c2ccccc2)c2ccccc2C1(Cc1ccncc1)Cc1ccncc1 [linopirdine]	–	310 ± 60 nM	65.5 ± 5.93%
